Assay results reported in publication PMC12213745, “Compounds from Cyclocarya paliurus leaves inhibit binary division of methicillin-resistant Staphylococcus aureus by disrupting FtsZ dynamic” (Frontiers in Microbiology, 2025).

Assays:
MRSA-4 = assay: MRSA skin infection model; format: in vivo, BALB/c mice
Experimental: All animal experiments were conducted in accordance with the NIH Guide for the Care and Use of Laboratory Animals and the institutional guidelines of West China Hospital, Sichuan University. The study was approved by the Institutional Animal Care and Use Committee (HX20220224085). Female BALB/c mice (6–8 weeks old) were obtained from Chengdu DOSSY Experimental Animal Co., Ltd. (Chengdu, China) and randomly assigned to five groups (n = 6 per group). On day 0, mice were subcutaneously inoculated with 2 × 10^8 CFUs of MRSA-4 suspended in 50 μL of sterile PBS. Treatment commenced 24 h post-infection. Mice received once daily subcutaneous injections at the site of infection for four consecutive days with either AA (0.2, 0.4, or 0.8 mg/kg), vancomycin (0.8 mg/kg, positive control), or PBS (negative control). Lesion progression was monitored daily by photographing the infected area, and wound sizes were quantified using ImageJ software (Version 1.42q, NIH, USA). On day 5 post-infection, mice were anesthetized and euthanized. The whole lesioned skin tissues were aseptically excised, homogenized in 1 mL of sterile PBS, and serially diluted. Aliquots were plated on LB agar and incubated at 37°C overnight to determine bacterial burdens.
Building on its rapid bactericidal activity in vitro and unique FtsZ-binding profile, we next evaluated the in vivo therapeutic efficacy of AA using a murine skin infection model. The model was established in BALB/c mice by subcutaneous inoculation with 2 × 10^8 CFU of MRSA-4 (Figure 7A). Treatment began 24 h post-infection and consisted of daily subcutaneous injections at the infection site for four consecutive days with AA (0.2, 0.4, or 0.8 mg/kg), vancomycin (at 0.8 mg/kg; positive control), or PBS (negative control). Therapeutic outcomes were assessed on day 5 post-infection by quantifying bacterial burden, visually monitoring wound healing, and measuring abscess size.

S. aureus ATCC25923 = assay: SEM analysis, cell long axis; format: cell-based, Staphylococcus aureus; conditions: 2 × MIC, 2 h, mean ± SD, PBS control 0.52 ± 0.05
Experimental: Scanning electron microscopy (SEM) was used to observe the morphological changes in bacterial cells treated with the isolated compounds. S. aureus ATCC 25923 and MRSA-4 were grown in MHB to mid-log phase (OD600 = 0.4–0.6) as previously described. The bacteria cultures were treated with AA, MA, or UA at 2 × MIC for 2 h at 37°C with shaking at 150 rpm. Untreated cultures (PBS group) served as the growth control. After incubation, bacterial cells were harvested by centrifugation and washed three times with PBS (pH 7.2). Coverslips (8 mm diameter) were cleaned with absolute ethanol under ultrasonication, air-dried, immersed in 0.1% (w/v) chitosan solution (dissolved in 1% acetic acid) for 5 s, and air-dried again at room temperature ([Su et al., 2022]). A 25 μL aliquot of the washed bacterial suspension was added to each coverslip and allowed to adhere for 1 h at room temperature. Adhered cells were fixed with 1 mL of 2.5% (v/v) glutaraldehyde at 4°C overnight. Fixed samples were rinsed 2–3 times with PBS (5 min per rinse), then dehydrated through a graded ethanol series: 50, 70, and 90% ethanol (each once for 5 min), followed by 100% ethanol (three times for 5 min each). After dehydration, samples were air-dried overnight at room temperature. SEM imaging was performed using an EVO 10 scanning electron microscope (Zeiss, Jena, Germany). Cell long-axis statistical analysis was conducted using ImageJ software (Version 1.42q, National Institutes of Health, MD, USA).
Having established the antibacterial activity of AA, MA, and UA, we next examined their effects on bacterial morphology. We employed SEM to examine the alterations induced by these compounds in S. aureus ATCC25923 and MRSA-4. Bacterial cultures were treated with AA, MA, or UA at 2 × MIC for 2 h, while untreated (PBS group) cultures served as negative controls. […] In PBS groups, both S. aureus ATCC25923 and MRSA-4 maintained typical spherical morphology with smooth and intact surfaces.

[1] = 0.8 mg/kg s.c. once daily for 4 days, day 5, vs PBS

Structure (SMILES): C[C@H]1[C@H](C)CC[C@]2(C(=O)O)CC[C@]3(C)C(=CC[C@@H]4[C@@]5(C)C[C@@H](O)[C@H](O)[C@@](C)(CO)[C@@H]5CC[C@]43C)[C@H]12 [AA, asiatic acid]
- wound healing (visual inspection) (MRSA-4; 0.8 mg/kg s.c. once daily for 4 days): substantial amelioration of symptoms
- abscess size (MRSA-4; [1]): significantly reduced abscess dimensions
- bacterial load in infected skin tissues (MRSA-4; [1]): significantly reduced bacterial counts
- bacterial load in infected skin tissues (MRSA-4; 0.2 and 0.4 mg/kg s.c. once daily for 4 days, day 5, vs PBS): modest but dose-responsive decreases in bacterial load
- wound healing (visual inspection) (MRSA-4; low-dose (0.2 and 0.4 mg/kg) s.c. once daily for 4 days): moderate, dose-dependent improvements in wound appearance
- length of long axis of cells (S. aureus ATCC25923): 0.78 ± 0.06 μm

Structure (SMILES): C[C@H]1[C@H](C)CC[C@]2(C(=O)O)CC[C@]3(C)C(=CC[C@@H]4[C@@]5(C)CC[C@H](O)C(C)(C)[C@@H]5CC[C@]43C)[C@H]12 [UA, ursolic acid]
- length of long axis of cells (S. aureus ATCC25923): 0.75 ± 0.05 μm

Structure (SMILES): CC1(C)CC[C@]2(C(=O)O)CC[C@]3(C)C(=CC[C@@H]4[C@@]5(C)C[C@@H](O)[C@H](O)C(C)(C)[C@@H]5CC[C@]43C)[C@@H]2C1 [MA, maslinic acid]
- length of long axis of cells (S. aureus ATCC25923): 0.78 ± 0.07 μm
